According to patent EP0908457B1, “3-(1,2-benzisothiazol- and isoxazol-5-Y1)-2,4(1H,3H)-pyrimidinedione or thione and 3-(1,2-benzisothiazol- and isoxazol-5-y1)-4(3H)-pyrimidinone or thione herbicidal agents” (BASF AKTIENGESELLSCHAFT, priority 1997, dated 1999):

Tests used:
[1] = test system: Cyperus serotinus, Rottb.; test: Preemergence weed control under flooded paddy conditions, CYPSE (Flatsedge); format: in vivo; conditions: preemergence, rated three to four weeks after treatment
Cyperus iria [2] = test: Postemergence weed control under flooded paddy conditions, CYPIR (Rice Flatsedge); format: in vivo; conditions: rated three to four weeks after treatment
[3] = test system: Monochoria vaginalis, Presl.; test: Postemergence weed control under flooded paddy conditions, MOOVA (Monochoria); format: in vivo; conditions: rated three to four weeks after treatment
Sagittaria pygmaea, L. [4] = test: Preemergence weed control under flooded paddy conditions, SAGPY (Arrowhead (Pygmaea)); format: in vivo; conditions: preemergence, flooded paddy, rated three to four weeks after treatment
Sagittaria pygmaea, L. [5] = test: Postemergence weed control under flooded paddy conditions, SAGPY (Arrowhead (Pygmaea)); format: in vivo; conditions: rated three to four weeks after treatment
[6] = test system: Oryza sativa, (L.) Tebonnet; test: Rice tolerance to post-transplant applications under flooded paddy conditions (Example 187), ORYSAT (Rice, Tebonnet); conditions: rated three to four weeks after treatment; as to herbicidal effect rating ORYSAT: meaning of each grade not given here
[7] = test system: Echinochloa oryzoides (Ard.) Fritsch.; test: Preemergence weed control under flooded paddy conditions, ECHORC (Watergrass (Calif.)); format: in vivo; conditions: preemergence, flooded paddy, rated three to four weeks after treatment
[8] = test system: Cyperus serotinus, Rottb.; test: Postemergence weed control under flooded paddy conditions, CYPSE (Flatsedge); format: in vivo; conditions: rated three to four weeks after treatment
[9] = test system: Oryza sativa, (L.) Tebonnet; test: Rice tolerance to post-transplant applications under flooded paddy conditions (Example 188), ORYSAT (Rice, Tebonnet); conditions: rated three to four weeks after treatment
[10] = test system: Echinochloa oryzoides (Ard.) Fritsch.; test: Postemergence weed control under flooded paddy conditions, ECHORC (Watergrass (Calif.)); format: in vivo; conditions: rated three to four weeks after treatment
Cyperus iria [11] = test: Preemergence weed control under flooded paddy conditions, CYPIR (Rice Flatsedge); format: in vivo; conditions: preemergence, flooded paddy, rated three to four weeks after treatment
[12] = test system: Monochoria vaginalis, Presl.; test: Preemergence weed control under flooded paddy conditions, MOOVA (Monochoria); format: in vivo; conditions: preemergence, flooded paddy, rated three to four weeks after treatment

COc1c(-c2nsc3ccc(-n4c(=O)cc(C(F)(F)F)n(C)c4=O)cc23)ccc(C)c1C [Example 267, 2,4(1H,3H)-Pyrimidinedione, 3-[3-(2-methoxy-3,4-xylyl)-1,2-benzisothiazol-5-yl]-1-methyl-6-(trifluoromethyl)-]
2.0: ORYSAT herbicidal effect rating ([6]; Rate 0.0320 kg/ha) | herbicidal effect rating, ORYSAT (rice tolerance) ([9]; Rate 0.0320 kg/ha)
5.0: SAGPY herbicidal effect rating (Sagittaria pygmaea, L. [4]; Rate 0.2500 kg/ha) | herbicidal effect rating, ORYSAT (rice tolerance) ([9]; Rate 0.0620 kg/ha)
7.5: MOOVA herbicidal effect rating ([12]; Rate 0.0320 kg/ha)
4.0: herbicidal effect rating, ECHORC ([10]; Rate 0.0320 kg/ha)
3.0: SAGPY herbicidal effect rating (Sagittaria pygmaea, L. [4]; Rate 0.1250 kg/ha) | ORYSAT herbicidal effect rating ([6]; Rate 0.0620 kg/ha)
9.0: CYPSE herbicidal effect rating ([1]; Rate 0.2500 kg/ha) | herbicidal effect rating, CYPIR (Cyperus iria [2]; Rate 0.0320 kg/ha) | herbicidal effect rating, CYPIR (Cyperus iria [2]; Rate 0.0620 kg/ha) | herbicidal effect rating, CYPIR (Cyperus iria [2]; Rate 0.1250 kg/ha) | herbicidal effect rating, CYPIR (Cyperus iria [2]; Rate 0.2500 kg/ha) | herbicidal effect rating, MOOVA ([3]; Rate 0.0320 kg/ha) | herbicidal effect rating, MOOVA ([3]; Rate 0.0620 kg/ha) | herbicidal effect rating, MOOVA ([3]; Rate 0.1250 kg/ha) | herbicidal effect rating, MOOVA ([3]; Rate 0.2500 kg/ha) | ECHORC herbicidal effect rating ([7]; Rate 0.0320 kg/ha) | ECHORC herbicidal effect rating ([7]; Rate 0.0620 kg/ha) | ECHORC herbicidal effect rating ([7]; Rate 0.1250 kg/ha) | ECHORC herbicidal effect rating ([7]; Rate 0.2500 kg/ha) | herbicidal effect rating, ECHORC ([10]; Rate 0.1250 kg/ha) | herbicidal effect rating, ECHORC ([10]; Rate 0.2500 kg/ha) | CYPIR herbicidal effect rating (Cyperus iria [11]; Rate 0.1250 kg/ha) | CYPIR herbicidal effect rating (Cyperus iria [11]; Rate 0.2500 kg/ha) | MOOVA herbicidal effect rating ([12]; Rate 0.0620 kg/ha) | MOOVA herbicidal effect rating ([12]; Rate 0.1250 kg/ha) | MOOVA herbicidal effect rating ([12]; Rate 0.2500 kg/ha)
6.0: ORYSAT herbicidal effect rating ([6]; Rate 0.2500 kg/ha) | herbicidal effect rating, ORYSAT (rice tolerance) ([9]; Rate 0.1250 kg/ha)
5.5: CYPSE herbicidal effect rating ([1]; Rate 0.1250 kg/ha)
1.0: SAGPY herbicidal effect rating (Sagittaria pygmaea, L. [4]; Rate 0.0620 kg/ha)
0.0: CYPSE herbicidal effect rating ([1]; Rate 0.0320 kg/ha) | CYPSE herbicidal effect rating ([1]; Rate 0.0620 kg/ha) | SAGPY herbicidal effect rating (Sagittaria pygmaea, L. [4]; Rate 0.0320 kg/ha) | herbicidal effect rating, SAGPY (Sagittaria pygmaea, L. [5]; Rate 0.0320 kg/ha) | herbicidal effect rating, SAGPY (Sagittaria pygmaea, L. [5]; Rate 0.0620 kg/ha) | herbicidal effect rating, SAGPY (Sagittaria pygmaea, L. [5]; Rate 0.1250 kg/ha) | herbicidal effect rating, SAGPY (Sagittaria pygmaea, L. [5]; Rate 0.2500 kg/ha) | herbicidal effect rating, CYPSE ([8]; Rate 0.0320 kg/ha) | herbicidal effect rating, CYPSE ([8]; Rate 0.0620 kg/ha) | herbicidal effect rating, CYPSE ([8]; Rate 0.1250 kg/ha) | herbicidal effect rating, CYPSE ([8]; Rate 0.2500 kg/ha)
4.5: ORYSAT herbicidal effect rating ([6]; Rate 0.1250 kg/ha)
8.0: herbicidal effect rating, ECHORC ([10]; Rate 0.0620 kg/ha) | CYPIR herbicidal effect rating (Cyperus iria [11]; Rate 0.0320 kg/ha) | CYPIR herbicidal effect rating (Cyperus iria [11]; Rate 0.0620 kg/ha)
7.0: herbicidal effect rating, ORYSAT (rice tolerance) ([9]; Rate 0.2500 kg/ha)

CON(C)C(=O)COc1ccccc1-c1nsc2ccc(-n3c(=O)cc(C(F)(F)F)n(C)c3=O)cc12 [Example 354, Acetamide, 2-{o-{5-[3,6-dihydro-3-methyl-2,6-dioxo-4-(trifluoromethyl)-1(2H)-pyrimidinyl]-1,2-benzisothiazol-3-yl}phenoxy}-N-methoxy-N-methyl-]
0.0: herbicidal effect rating, SAGPY (Sagittaria pygmaea, L. [5]; Rate 0.0320 kg/ha)
2.0: herbicidal effect rating, SAGPY (Sagittaria pygmaea, L. [5]; Rate 0.0620 kg/ha) | herbicidal effect rating, CYPSE ([8]; Rate 0.0620 kg/ha)
9.0: herbicidal effect rating, CYPSE ([1]; Rate 0.0620 kg/ha) | herbicidal effect rating, CYPSE ([1]; Rate 0.1250 kg/ha) | herbicidal effect rating, CYPSE ([1]; Rate 0.2500 kg/ha) | herbicidal effect rating, CYPIR (Cyperus iria [2]; Rate 0.0620 kg/ha) | herbicidal effect rating, CYPIR (Cyperus iria [2]; Rate 0.1250 kg/ha) | herbicidal effect rating, MOOVA ([3]; Rate 0.0620 kg/ha) | herbicidal effect rating, MOOVA ([3]; Rate 0.1250 kg/ha) | herbicidal effect rating, SAGPY (Sagittaria pygmaea, L. [4]; Rate 0.0620 kg/ha) | herbicidal effect rating, SAGPY (Sagittaria pygmaea, L. [4]; Rate 0.1250 kg/ha) | herbicidal effect rating, SAGPY (Sagittaria pygmaea, L. [4]; Rate 0.2500 kg/ha) | herbicidal effect rating, SAGPY (Sagittaria pygmaea, L. [5]; Rate 0.1250 kg/ha) | herbicidal effect rating ORYSAT ([6]; Rate 0.1250 kg/ha) | herbicidal effect rating ORYSAT ([6]; Rate 0.2500 kg/ha) | herbicidal effect rating, ECHORC ([7]; Rate 0.0320 kg/ha) | herbicidal effect rating, ECHORC ([7]; Rate 0.0620 kg/ha) | herbicidal effect rating, ECHORC ([7]; Rate 0.1250 kg/ha) | herbicidal effect rating, ECHORC ([7]; Rate 0.2500 kg/ha) | herbicidal effect rating, CYPSE ([8]; Rate 0.1250 kg/ha) | herbicidal effect rating, ECHORC ([10]; Rate 0.1250 kg/ha) | herbicidal effect rating, CYPIR (Cyperus iria [11]; Rate 0.0620 kg/ha) | herbicidal effect rating, CYPIR (Cyperus iria [11]; Rate 0.1250 kg/ha) | herbicidal effect rating, CYPIR (Cyperus iria [11]; Rate 0.2500 kg/ha) | herbicidal effect rating, MOOVA ([12]; Rate 0.0320 kg/ha) | herbicidal effect rating, MOOVA ([12]; Rate 0.0620 kg/ha) | herbicidal effect rating, MOOVA ([12]; Rate 0.1250 kg/ha) | herbicidal effect rating, MOOVA ([12]; Rate 0.2500 kg/ha)
1.0: herbicidal effect rating, CYPSE ([8]; Rate 0.0320 kg/ha)
7.3: herbicidal effect rating ORYSAT ([6]; Rate 0.0320 kg/ha)
8.3: herbicidal effect rating, CYPIR (Cyperus iria [11]; Rate 0.0320 kg/ha)
4.0: herbicidal effect rating, ECHORC ([10]; Rate 0.0320 kg/ha)
6.3: herbicidal effect rating, SAGPY (Sagittaria pygmaea, L. [4]; Rate 0.0320 kg/ha)
6.0: herbicidal effect rating, MOOVA ([3]; Rate 0.0320 kg/ha) | herbicidal effect rating, ORYSAT (rice tolerance) ([9]; Rate 0.0620 kg/ha) | herbicidal effect rating, ORYSAT (rice tolerance) ([9]; Rate 0.1250 kg/ha)
8.0: herbicidal effect rating, CYPSE ([1]; Rate 0.0320 kg/ha) | herbicidal effect rating ORYSAT ([6]; Rate 0.0620 kg/ha)
7.0: herbicidal effect rating, ECHORC ([10]; Rate 0.0620 kg/ha)

COCc1nsc2cc(F)c(-n3c(=O)cc(C(F)(F)F)n(C)c3=O)cc12 [Example 378, 2,4(1H,3H)-Pyrimidinedione, 3-[6-fluoro-3-(methoxymethyl)-1,2-benzisothiazol-5-yl]-1-methyl-6-(trifluoromethyl)-]
8.0: herbicidal effect rating, ORYSAT (rice tolerance) ([9]; Rate 0.0320 kg/ha) | herbicidal effect rating, ORYSAT (rice tolerance) ([9]; Rate 0.0620 kg/ha)
9.0: herbicidal effect rating, CYPSE ([1]; Rate 0.0320 kg/ha) | herbicidal effect rating, CYPSE ([1]; Rate 0.0620 kg/ha) | herbicidal effect rating, CYPSE ([1]; Rate 0.1250 kg/ha) | herbicidal effect rating, CYPSE ([1]; Rate 0.2500 kg/ha) | herbicidal effect rating, CYPIR (Cyperus iria [2]; Rate 0.0320 kg/ha) | herbicidal effect rating, CYPIR (Cyperus iria [2]; Rate 0.0620 kg/ha) | herbicidal effect rating, CYPIR (Cyperus iria [2]; Rate 0.1250 kg/ha) | herbicidal effect rating, MOOVA ([3]; Rate 0.0320 kg/ha) | herbicidal effect rating, MOOVA ([3]; Rate 0.0620 kg/ha) | herbicidal effect rating, MOOVA ([3]; Rate 0.1250 kg/ha) | herbicidal effect rating, SAGPY (Sagittaria pygmaea, L. [4]; Rate 0.0320 kg/ha) | herbicidal effect rating, SAGPY (Sagittaria pygmaea, L. [4]; Rate 0.0620 kg/ha) | herbicidal effect rating, SAGPY (Sagittaria pygmaea, L. [4]; Rate 0.1250 kg/ha) | herbicidal effect rating, SAGPY (Sagittaria pygmaea, L. [4]; Rate 0.2500 kg/ha) | herbicidal effect rating, SAGPY (Sagittaria pygmaea, L. [5]; Rate 0.0320 kg/ha) | herbicidal effect rating, SAGPY (Sagittaria pygmaea, L. [5]; Rate 0.0620 kg/ha) | herbicidal effect rating, SAGPY (Sagittaria pygmaea, L. [5]; Rate 0.1250 kg/ha) | herbicidal effect rating ORYSAT ([6]; Rate 0.0320 kg/ha) | herbicidal effect rating ORYSAT ([6]; Rate 0.0620 kg/ha) | herbicidal effect rating ORYSAT ([6]; Rate 0.1250 kg/ha) | herbicidal effect rating ORYSAT ([6]; Rate 0.2500 kg/ha) | herbicidal effect rating, ECHORC ([7]; Rate 0.0320 kg/ha) | herbicidal effect rating, ECHORC ([7]; Rate 0.0620 kg/ha) | herbicidal effect rating, ECHORC ([7]; Rate 0.1250 kg/ha) | herbicidal effect rating, ECHORC ([7]; Rate 0.2500 kg/ha) | herbicidal effect rating, CYPSE ([8]; Rate 0.0320 kg/ha) | herbicidal effect rating, CYPSE ([8]; Rate 0.0620 kg/ha) | herbicidal effect rating, CYPSE ([8]; Rate 0.1250 kg/ha) | herbicidal effect rating, ORYSAT (rice tolerance) ([9]; Rate 0.1250 kg/ha) | herbicidal effect rating, ECHORC ([10]; Rate 0.0320 kg/ha) | herbicidal effect rating, ECHORC ([10]; Rate 0.0620 kg/ha) | herbicidal effect rating, ECHORC ([10]; Rate 0.1250 kg/ha) | herbicidal effect rating, CYPIR (Cyperus iria [11]; Rate 0.0320 kg/ha) | herbicidal effect rating, CYPIR (Cyperus iria [11]; Rate 0.0620 kg/ha) | herbicidal effect rating, CYPIR (Cyperus iria [11]; Rate 0.1250 kg/ha) | herbicidal effect rating, CYPIR (Cyperus iria [11]; Rate 0.2500 kg/ha) | herbicidal effect rating, MOOVA ([12]; Rate 0.0320 kg/ha) | herbicidal effect rating, MOOVA ([12]; Rate 0.0620 kg/ha) | herbicidal effect rating, MOOVA ([12]; Rate 0.1250 kg/ha) | herbicidal effect rating, MOOVA ([12]; Rate 0.2500 kg/ha)
